Counter-ions that a name gives are not always drawn.

In assay [1] the target is T1, α4β1 integrin (Jurkat T-cell adhesion to IL-1 stimulated endothelial cell monolayers) (Homo sapiens, UniProt P05556+P13612).
T1 construct: a T-cell line, Jurkat, known to express the α4β1 integrin; host or cells: Jurkat T-cell line
The assay is described as follows: Jurkat-endothelial cell adhesion assay (Jurkat EC). Type of assay: cell-based. The settings on record: Jurkat cells on IL-1 stimulated human umbilical vein endothelial cells; read-out: JK/EC (Jurkat EC Assay IC50 value range). The gist of the method:
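Adhesion was expressed as percent of compound-free fluorescence after 20 min at 37° C (following 5 min settling on ice) of BCECF-loaded Jurkat T cells on washed HUVEC monolayers. The endothelium, passage 6 or lower, had received 0.1 ng/ml recombinant IL-1 for 4 hr at 37° C; compound was premixed with the T cells, typically at 100, 20, 5 and 1.25 μM.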

The target of assay [2] is T2, α4β1 integrin (Jurkat cell adhesion to immobilized CS-1 derived peptide CLHPGEILDVPST) (Homo sapiens, UniProt P05556+P13612).
T2 construct: 100 μl of Jurkat cells (2.5×10^6 cells/ml) in DMEM plus BSA; host or cells: Jurkat T-cell line
T2 sequence (P13612 34-1032): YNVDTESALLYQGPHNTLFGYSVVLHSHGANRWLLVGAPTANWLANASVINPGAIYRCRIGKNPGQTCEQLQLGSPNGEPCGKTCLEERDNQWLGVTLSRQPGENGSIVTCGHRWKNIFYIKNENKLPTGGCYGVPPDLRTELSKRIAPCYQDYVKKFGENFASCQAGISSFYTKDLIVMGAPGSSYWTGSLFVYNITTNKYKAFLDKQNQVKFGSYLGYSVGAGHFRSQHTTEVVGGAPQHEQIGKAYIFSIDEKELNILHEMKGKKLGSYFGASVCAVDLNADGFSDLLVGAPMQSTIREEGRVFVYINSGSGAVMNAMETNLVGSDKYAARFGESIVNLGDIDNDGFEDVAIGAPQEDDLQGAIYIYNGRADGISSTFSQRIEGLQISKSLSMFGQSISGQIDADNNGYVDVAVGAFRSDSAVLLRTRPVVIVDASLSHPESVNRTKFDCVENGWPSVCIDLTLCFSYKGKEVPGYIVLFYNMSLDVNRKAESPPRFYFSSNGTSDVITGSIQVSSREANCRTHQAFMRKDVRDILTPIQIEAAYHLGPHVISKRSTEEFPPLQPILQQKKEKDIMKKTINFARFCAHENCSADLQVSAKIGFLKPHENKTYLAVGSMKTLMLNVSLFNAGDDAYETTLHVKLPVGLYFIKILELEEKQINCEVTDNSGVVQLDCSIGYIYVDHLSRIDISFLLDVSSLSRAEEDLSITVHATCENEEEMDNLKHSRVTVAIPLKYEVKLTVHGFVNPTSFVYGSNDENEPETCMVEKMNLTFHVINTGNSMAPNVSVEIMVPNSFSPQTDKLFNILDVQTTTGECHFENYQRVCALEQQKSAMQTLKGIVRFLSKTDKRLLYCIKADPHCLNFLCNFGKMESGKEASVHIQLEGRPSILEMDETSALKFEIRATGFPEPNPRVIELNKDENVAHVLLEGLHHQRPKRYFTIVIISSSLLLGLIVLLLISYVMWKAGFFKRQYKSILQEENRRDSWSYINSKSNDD
T2 sequence (P05556 21-798): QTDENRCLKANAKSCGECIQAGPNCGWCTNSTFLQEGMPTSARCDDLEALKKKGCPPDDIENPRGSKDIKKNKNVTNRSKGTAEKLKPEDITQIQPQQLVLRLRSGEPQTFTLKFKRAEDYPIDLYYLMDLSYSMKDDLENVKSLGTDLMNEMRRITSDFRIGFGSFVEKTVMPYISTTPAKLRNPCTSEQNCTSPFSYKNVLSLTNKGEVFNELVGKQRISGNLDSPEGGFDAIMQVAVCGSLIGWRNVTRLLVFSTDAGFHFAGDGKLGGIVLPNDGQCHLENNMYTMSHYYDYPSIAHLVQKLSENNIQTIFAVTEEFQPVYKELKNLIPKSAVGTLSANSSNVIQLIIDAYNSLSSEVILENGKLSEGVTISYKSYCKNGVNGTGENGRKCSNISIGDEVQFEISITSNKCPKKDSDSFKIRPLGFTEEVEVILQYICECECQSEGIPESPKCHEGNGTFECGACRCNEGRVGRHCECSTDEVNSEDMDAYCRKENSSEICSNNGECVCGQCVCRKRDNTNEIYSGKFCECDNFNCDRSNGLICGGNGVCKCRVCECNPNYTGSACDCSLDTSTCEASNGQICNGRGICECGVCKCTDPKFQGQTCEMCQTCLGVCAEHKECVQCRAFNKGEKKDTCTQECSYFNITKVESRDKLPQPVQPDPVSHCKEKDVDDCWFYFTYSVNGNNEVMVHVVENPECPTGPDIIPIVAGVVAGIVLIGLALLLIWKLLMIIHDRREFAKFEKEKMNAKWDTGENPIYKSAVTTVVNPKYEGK
The assay is described as follows: Jurkat-CS-1 assay. Type of assay: cell-based. As to conditions: Jurkat cells on CS-1 peptide coated plates; read-out: JK/CS-1 (Jurkat CS-1 Assay IC50 value range). The gist of the method: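 CS-1 peptide was SPDP-crosslinked onto HSA-coated plates and blocked with BSA. Jurkat cells (2.5×10^6 cells/ml) in DMEM/BSA were mixed with compound, generally at 100, 20, 5 and 1.25 μM, and allowed to adhere for 1 hr at 37° C. Bound cells were fixed, stained with toluidine blue and quantified by OD590.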

T1 sequence (P13612 34-1032): as the sequence (P13612 34-1032) above
T1 sequence (P05556 21-798): as the sequence (P05556 21-798) above

Consider `O=C(Nc1ccc(C[C@H](NC(=O)[C@H]2CSCN2C(=O)OCCN2CCOCC2)C(=O)O)cc1)c1c(Cl)cccc1Cl` (relative stereo) [Example 25, [S-(R*,R*)]-4-[[[1-Carboxy-2-[-4-[(2,6-dichlorobenzoyl)amino]phenyl]ethyl]amino]carbonyl]-3-thiazolidinecarboxylic Acid 3-[2-(4-Morpholinyl)ethyl]ester], for which the IC50 is no more than 250 nM in assay [1] and no more than 50 nM in assay [2].
The matching figures for `COC(=O)[C@H](Cc1ccc(NC(=O)c2c(Cl)cccc2Cl)cc1)NC(=O)[C@@H]1N(C(=O)OC(C)(C)C)CSC1(C)C` (relative stereo) [Example 28, [S-(R*,R*)]-4-[[[1-[[4-[(2,6-Dichlorobenzoyl)amino]phenyl]methyl]-2-methoxy-2-oxoethyl]amino]carbonyl]-5,5-dimethyl-3-thiazolidinecarboxylic Acid 3-(1,1-Dimethylethyl)ester]: no less than 1000 nM and no less than 750 nM.
The matching figures for `O=C(Nc1ccc(C[C@H](NC(=O)[C@@H]2CSCN2C(=O)C2CCOC2)C(=O)O)cc1)c1c(Cl)cccc1Cl` (stereo partly drawn) [Example 246]: 250 to 1000 nM and 50 to 750 nM.
In the same order, the values of `COC(=O)[C@H](Cc1ccc(OCc2c(Cl)cccc2Cl)cc1)NC(=O)[C@H]1CSCN1C(C)=O` [Example 65, N-[[(4S)-3-Acetyl-4-thiazolidinyl]carbonyl]-O-[(2,6-dichlorophenyl)methyl]-L-tyrosine Methyl Ester] are no less than 1000 nM and 50 to 750 nM.
As for `O=C(O)CCC1(CCC(=O)N[C@@H](Cc2ccc(NC(=O)c3c(Cl)cccc3Cl)cc2)C(=O)O)CCC(=O)N1` (stereo partly drawn) [Example 115], the IC50 is no less than 1000 nM in assay [1] and 50 to 750 nM in assay [2].
The matching figures for `O=C(O)c1cncc(C(=O)N2CCCC[C@H]2C(=O)N[C@@H](Cc2ccc(NC(=O)c3c(Cl)cccc3Cl)cc2)C(=O)O)c1` [Example 172, 5-[[(2S)-2-[[[(1S)-1-Carboxy-2-[4-[(2,6-dichlorobenzoyl)amino]phenyl]ethyl]amino]carbonyl]-1-piperidinyl]carbonyl]-3-pyridinecarboxylic Acid]: no more than 250 nM and no more than 50 nM.
As for `O=C(O)CCC(=O)N1CSC[C@@H]1C(=O)N[C@@H](Cc1ccc(NC(=O)c2c(Cl)cccc2Cl)cc1)C(=O)O` (relative stereo) [Example 9, [S-(R*,R*)]-4-[[[1-Carboxy-2-[4-[(2,6-dichlorobenzoyl)amino]phenyl]ethyl]amino]carbonyl]-γ-oxo-3-thiazolidinebutanoic Acid], the IC50 in assay [1] is no more than 250 nM; in assay [2], no more than 50 nM.
In the same order, the values of `COC(=O)[C@H](Cc1ccc(NC(=O)c2c(Cl)cccc2Cl)cc1)NC(=O)[C@H]1CSCN1S(=O)(=O)c1ccccc1` [Example 46, 4-[(2,6-Dichlorobenzoyl)amino]-N-[[(4S)-3-(phenylsulfonyl)-4-thiazolidinyl]carbonyl]-L-phenylalanine Methyl Ester] are no less than 1000 nM and no less than 750 nM.
The matching figures for `O=C(O)CCC(=O)N1CCSCCC1C(=O)N[C@@H](Cc1ccc(NC(=O)c2c(Cl)cccc2Cl)cc1)C(=O)O` (stereo partly drawn) [Example 267, 5-[[[(1S)-1-Carboxy-2-[4-[(2,6-dichlorobenzoyl)amino]phenyl]ethyl]amino]carbonyl]-tetrahydro-γ-oxo-1,4-thiazepine-4(5H)-butanoic Acid]: no less than 1000 nM and 50 to 750 nM.
The matching figures for `O=C(Nc1ccc(C[C@H](NC(=O)[C@H]2COCN2C(=O)OCc2ccccc2)C(=O)O)cc1)c1c(Cl)cccc1Cl` [Example 127, [R-(R*,S*)]-4-[[[1-Carboxy-2-[4-[(2,6-dichlorobenzoyl)amino]phenyl]ethyl]amino]-carbonyl]-3-oxazolidinecarboxylic Acid 3-(Phenylmethyl)ester]: no more than 250 nM and 50 to 750 nM.
Take `CC(=O)N1CSC[C@@H]1C(=O)N[C@@H](Cc1ccc(NC(=O)c2c(Cl)cccc2Cl)cc1)C(=O)O` [Example 62, N-[[(4S)-3-Acetyl-4-thiazolidinyl]carbonyl]-4-[(2,6-dichlorobenzoyl)amino]-L-phenylalanine]: the figures for the IC50 in assay [1] and in assay [2] were no more than 250 nM and no more than 50 nM, respectively.
As for `O=C(Nc1ccc(C[C@H](NC(=O)[C@@H]2CSCN2C(=O)C2CCCO2)C(=O)O)cc1)c1c(Cl)cccc1Cl` (stereo partly drawn) [Example 245], the IC50 was no more than 250 nM in assay [1] and 50 to 750 nM in assay [2].
In the same order, the values of `COC(=O)[C@@H](Cc1ccc(NC(=O)c2c(Cl)cccc2Cl)cc1)NC(=O)[C@H]1CSCN1C(=O)OC(C)(C)C` (stereo in doubt) [Example 26, [S-(R*,S*)]-4-[[[1-[4-[(2,6-Dichlorobenzoyl)amino]phenyl]methyl]-2-methoxy-2-oxoethyl]amino]carbonyl]-3-thiazolidinecarboxylic Acid 3-1,1-Dimethylethyl)ester] are no less than 1000 nM and no less than 750 nM.
The matching figures for `CCOC(=O)N1[C@@H](C(=O)N[C@@H](Cc2ccc(NC(=O)c3c(Cl)cccc3Cl)cc2)C(=O)OC)CSC12CCCC2` (relative stereo) [Example 77, [S-(R*,R*)]-3-[[[1-[[4-[(2,6-Dichlorobenzoyl)amino]phenyl]methyl]-2-methoxy-2-oxoethyl]amino]carbonyl]-1-thia-4-azaspiro[4.4]nonane-4-carboxylic Acid 4-Ethyl Ester]: no less than 1000 nM and no less than 750 nM.
The matching figures for `O=C(Nc1ccc(C[C@H](NC(=O)[C@@H]2CSCN2C(=O)c2cccnc2)C(=O)O)cc1)c1c(Cl)cccc1Cl` [Example 239]: no less than 1000 nM and 50 to 750 nM.
As to `O=C(O)CCC(=O)N1CCC[C@@H]1C(=O)N[C@@H](Cc1ccc(NC(=O)c2c(Cl)cccc2Cl)cc1)C(=O)O` [Example 254], the IC50 in assay [1] was in the range of 250 to 1000 nM; in assay [2], 50 to 750 nM.
Turning to `CC(=O)CCC(=O)N1CCCC(C(=O)N[C@@H](Cc2ccc(NC(=O)c3c(Cl)cccc3Cl)cc2)C(=O)O)C1` (stereo partly drawn) [Example 201], the IC50 in assay [1] is no less than 1000 nM; in assay [2], 50 to 750 nM.
In the same order, the values of `COC(=O)[C@H](Cc1ccc(NC(=O)c2c(Cl)cccc2Cl)cc1)NC(=O)[C@H]1CSCN1S(C)(=O)=O` [Example 2, 4-[(2,6-Dichlorobenzoyl)amino]-N-[[(4S)-3-(methylsulfonyl)-4-thiazolidinyl]carbonyl]-L-phenylalanine Methyl Ester] are no more than 250 nM and 50 to 750 nM.
In the same order, the values of `O=C(Nc1ccc(C[C@H](NC(=O)[C@H]2CSCN2S(=O)(=O)c2ccccc2)C(=O)O)cc1)c1c(Cl)cccc1Cl` [Example 47] are no more than 250 nM and no more than 50 nM.
In the same order, the values of `O=C(O)c1cncc(C(=O)N2CCC[C@H]2C(=O)N[C@@H](Cc2ccc(NC(=O)c3c(Cl)cccc3Cl)cc2)C(=O)O)c1` [Example 237] are no less than 1000 nM and 50 to 750 nM.
`O=C(O)CCC(=O)N1CCCCC[C@H]1C(=O)N[C@@H](Cc1ccc(NC(=O)c2c(Cl)cccc2Cl)cc1)C(=O)O` (relative stereo) [Example 157, [S-(R*,R*)]-2-[[[1-Carboxy-2-[4-[(2,6-dichlorobenzoyl)amino]phenyl]ethyl]amino]carbonyl]-hexahydro-γ-oxo-1H-azepine-1-butanoic Acid]: the IC50 in assay [1] was no more than 250 nM; in assay [2], 50 to 750 nM.
In the same order, the values of `COC(=O)[C@H](Cc1ccc(NC(=O)c2c(Cl)cccc2Cl)cc1)NC(=O)[C@H]1COCN1C(=O)OCc1ccccc1` [Example 126, [R-(R*S*)]-4-[[[1-[[4-[(2,6-Dichlorobenzoyl)amino]phenyl]methyl]-2-methoxy-2-oxoethyl]amino]carbonyl]-3-oxazolidinecarboxylic Acid 3-Phenylmethyl Ester] are no less than 1000 nM and no less than 750 nM.
In the same order, the values of `COC(=O)[C@H](Cc1ccc(NC(=O)c2c(Cl)cccc2Cl)cc1)NC(=O)[C@@H]1CSCCN1C(=O)OC(C)(C)C` [Example 96] are no less than 1000 nM and no less than 750 nM.
The matching figures for `O=C(NO)[C@H](Cc1ccc(OCc2c(Cl)cccc2Cl)cc1)NC(=O)[C@H]1CSCN1C(=O)OCCN1CCOCC1` [Example 91]: no less than 1000 nM and no less than 750 nM.
`CC(C)(C)OC(=O)N1CSC[C@@H]1C(=O)N[C@@H](Cc1ccc(N(C(=O)c2c(Cl)cccc2Cl)C(=O)c2c(Cl)cccc2Cl)nc1)C(=O)O` [Example 123, [S-(R*,R*)]-4-[[[[1-Carboxy-2-[2-[[bis-(2,6-dichlorobenzoyl)]amino]-5-pyridyl]]ethyl]amino]carbonyl]-3-thiazolidinecarboxylic Acid (1,1-Dimethylethyl)ester]: the IC50 was no less than 1000 nM in assay [1] and no less than 750 nM in assay [2].
Consider `O=C(Nc1ccc(C[C@H](NC(=O)[C@@H]2CCN2)C(=O)O)cc1)c1c(Cl)cccc1Cl` [Example 144, N-[[(2S)-2-Azetidinyl]carbonyl]-4-[(2,6-dichlorobenzoyl)amino]-L-phenylalanine Trifluoroacetic acid Salt], for which the IC50 in assay [1] is no less than 1000 nM; in assay [2] it was 50 to 750 nM.
The matching figures for `CC(c1ccccc1)N1C(C(=O)O)CC1C(=O)NC(Cc1ccc(NC(=O)c2c(Cl)cccc2Cl)cc1)C(=O)O` (single isomer, unassigned) [Example 133]: no less than 1000 nM and no less than 750 nM.
